From ChEMBL document CHEMBL5518177, “Discovery of GPX4 inhibitors through FP-based high-throughput screening” (Eur J Med Chem, 2024)
pIC50, pKd: −log10 of the molar value. Calls of active or inactive are those of the source. The calls are words filed in the database; no cut-off is given here.

What was measured:
[1] = Binding affinity to N-terminal 6His-TEV-tagged recombinant human GPX4-U46C-C10A-C66A mutant (Met1 to Phe170 residues) expressed in Escherichia coli BL21 (DE3) cells incubated for 20 mins in presence of FITC-labeled peptide by fluorescence polarization based competitive binding assay; type: cell-based
Homo sapiens [2] = organism: Homo sapiens; assay: Inhibition of N-terminal 6His-TEV-tagged recombinant human GPX4-U46C-C10A-C66A mutant (Met1 to Phe170 residues) expressed in Escherichia coli BL21 (DE3) cells at 1 to 100 uM incubated for 20 mins by fluorescence polarization based high-throughput screening assay; conditions: dose 1-100 µM
[3] = Inhibition of N-terminal 6His-TEV-tagged recombinant human GPX4-U46C-C10A-C66A mutant (Met1 to Phe170 residues) expressed in Escherichia coli BL21 (DE3) cells incubated for 20 mins by fluorescence polarization based high-throughput screening assay
Homo sapiens [4] = organism: Homo sapiens; assay: (§1) Inhibition of N-terminal 6His-TEV-tagged recombinant human GPX4-U46C-C10A-C66A mutant (Met1 to Phe170 residues) expressed in Escherichia coli BL21 (DE3) cells using tert-butyl peroxide as substrate assessed as Km at 30 uM preincubated for 10 mins in presence of NADPH and GSH followed by substrate addition and measured after 30 mins by absorbance based plate reader analysis (reference value: 36.04 +/- 7.80 microM); conditions: time 40.0 min
Homo sapiens [5] = organism: Homo sapiens; assay: as §1, with “at 50” for “at 30”; conditions: time 40.0 min
Homo sapiens [6] = organism: Homo sapiens; assay: Inhibition of N-terminal 6His-TEV-tagged recombinant human GPX4-U46C-C10A-C66A mutant (Met1 to Phe170 residues) expressed in Escherichia coli BL21 (DE3) cells using tert-butyl peroxide as substrate assessed as Vmax at 10 uM preincubated for 10 mins in presence of NADPH and GSH followed by substrate …; conditions: time 40.0 min
Homo sapiens [7] = organism: Homo sapiens; assay: Reversible inhibition of N-terminal 6His-TEV-tagged recombinant human GPX4-U46C-C10A-C66A mutant (Met1 to Phe170 residues) expressed in Escherichia coli BL21 (DE3) cells by mass spectrum analysis
Homo sapiens [8] = organism: Homo sapiens; assay: as §1, with “as Vmax” for “as Km”, “at 20” for “at 30”, “value: 0.556” for “value: 36.04”, “+/- 0.058 nM/min)” for “+/- 7.80 microM)”; conditions: time 40.0 min
Homo sapiens [9] = organism: Homo sapiens; assay: Inhibition of N-terminal 6His-TEV-tagged recombinant human GPX4-U46C-C10A-C66A mutant (Met1 to Phe170 residues) expressed in Escherichia coli BL21 (DE3) cells using tert-butyl peroxide as substrate assessed as Km at 10 uM preincubated for 10 mins in presence of NADPH and GSH followed by substrate …; conditions: time 40.0 min
Homo sapiens [10] = organism: Homo sapiens; assay: as §1, with “at 40” for “at 30”; conditions: time 40.0 min
[11] = Binding affinity to N-terminal 6His-TEV-tagged recombinant human GPX4-U46C-C10A-C66A mutant (Met1 to Phe170 residues) expressed in Escherichia coli BL21 (DE3) cells assessed as dissociation constant incubated for 10 mins by microscale thermophoresis assay
Homo sapiens [12] = organism: Homo sapiens; assay: as §1, with “as Vmax” for “as Km”, “at 40” for “at 30”, “value: 0.556” for “value: 36.04”, “+/- 0.058 nM/min)” for “+/- 7.80 microM)”; conditions: time 40.0 min
Homo sapiens [13] = organism: Homo sapiens; assay: as §1, with “Vmax” for “Km”, “0.556” for “36.04”, “0.058 nM/min)” for “7.80 microM)”; conditions: time 40.0 min
Homo sapiens [14] = organism: Homo sapiens; assay: as §1, with “at 20” for “at 30”; conditions: time 40.0 min
Homo sapiens [15] = organism: Homo sapiens; assay: Non-covalent binding to N-terminal 6His-TEV-tagged recombinant human GPX4-U46C-C10A-C66A mutant (Met1 to Phe170 residues) expressed in Escherichia coli BL21 (DE3) cells by mass spectrum analysis
[16] = as §1, with “hydroperoxide” for “peroxide”, “substrate” for “substrate assessed as Km at 30 uM”, “analysis” for “analysis (reference value: 36.04 +/- 7.80 microM)”
Homo sapiens [17] = organism: Homo sapiens; assay: as §1, with “as Vmax” for “as Km”, “at 50” for “at 30”, “value: 0.556” for “value: 36.04”, “+/- 0.058 nM/min)” for “+/- 7.80 microM)”; conditions: time 40.0 min

Work on `Cc1c(NCS(=O)(=O)O)c(=O)n(-c2cccc(-c3ccoc3)c2)n1C` yielded a pIC50 [1] of 5.23.

For `N[C@@H](CO)C(=O)NNCc1ccc(O)c(O)c1O`, the inhibition (Homo sapiens [2]) was “Active” and the pIC50 [3] was 5.12.

With `Cc1c(NCS(=O)(=O)O)c(=O)n(-c2ccccn2)n1C` the pIC50 [1] was 5.45.

`Cc1c(NCS(=O)(=O)O)c(=O)n(-c2ccccc2)n1C(C)C` gave a pIC50 [1] of less than 4.00.

In the case of `CNC(=O)CN(C)c1c(C)n(C)n(-c2ccccc2)c1=O`, the pIC50 [1] was less than 4.00.

For `Cc1c(S(=O)(=O)O)oc2c1C(=O)C(=O)c1c-2ccc2c1CCCC2(C)C` [SODIUM TANSHINONE IIA SULFONATE], the inhibition (Homo sapiens [2]) was “Active” and the pIC50 [3] was 4.86.

Work on `Cc1c(NCS(=O)(=O)O)c(=O)n(-c2ccccc2-c2ccccc2)n1C` yielded a pIC50 [1] of 5.38.

For `O=c1oc2cc(O)ccc2s1` [TIOXOLONE], the inhibition (Homo sapiens [2]) was “Active” and the pIC50 [3] was 5.29.

Molecule `Cc1c(NCS(=O)(=O)O)c(=O)n(-c2ccc(-c3ccoc3)cc2)n1C` has a pIC50 [1] of 5.07.

Work on `CCc1c(NCS(=O)(=O)O)c(=O)n(-c2ccccc2)n1C` yielded a pIC50 [1] of less than 4.00.

In the case of `Cc1c(NCS(=O)(=O)O)c(=O)n(-c2ccccc2-c2ccoc2)n1C`, the pIC50 [1] was 5.24.

Molecule `Cn1c(C2CC2)c(NCS(=O)(=O)O)c(=O)n1-c1ccccc1` has a pIC50 [1] of 5.33.

For `C=CC1=C(C)C(=O)N/C1=C\c1[nH]c(Cc2[nH]c(/C=C3\NC(=O)C(C)=C3C=C)c(C)c2CCC(=O)O)c(CCC(=O)O)c1C`, the inhibition (Homo sapiens [2]) was “Active” and the pIC50 [3] was 5.34.

`CCCn1c(C)c(NCS(=O)(=O)O)c(=O)n1-c1ccccc1` gave a pIC50 [1] of 5.22.

`Cc1c(N(C)CS(=O)(=O)O)c(=O)n(-c2ccccc2)n1C` [DIPYRONE SODIUM] gave a Km (Homo sapiens [4]) of 15.7 µM, a Km (Homo sapiens [5]) of 11.9 µM and a Vmax (Homo sapiens [6]) of 0.439 nM/min. The pIC50 [1] was 5.32, the inhibition (Homo sapiens [7]) was “Dose-Dependent Effect” and the Vmax (Homo sapiens [8]) was 0.361 nM/min. For the same molecule, the Km (Homo sapiens [9]) was 23.4 µM, the inhibition (Homo sapiens [2]) was “Active” and the Km (Homo sapiens [10]) was 12.1 µM. The pKd [11] was 5.28, the pIC50 [3] was 5.85 and the Vmax (Homo sapiens [12]) was 0.306 nM/min. The Vmax (Homo sapiens [13]) was 0.345 nM/min, the Km (Homo sapiens [14]) was 17.2 µM and the Activity (Homo sapiens [15]) was “Active”. For the same molecule, the pIC50 [16] was 4.51 and the Vmax (Homo sapiens [17]) was 0.289 nM/min.

Molecule `Cc1c(NCS(=O)(=O)O)c(=O)n(-c2cccc(-c3ccccc3)c2)n1C` has a pIC50 [1] of less than 4.00.

In the case of `CCCc1c(NCS(=O)(=O)O)c(=O)n(-c2ccccc2)n1C`, the pIC50 [1] was less than 4.00.

In the case of `O=C(O)[C@H](O)Cc1ccc(O)c(O)c1`, the inhibition (Homo sapiens [2]) was “Active” and the pIC50 [3] was 5.18.

`Cc1c(NCS(=O)(=O)O)c(=O)n(-c2ccccc2Br)n1C` gave a pIC50 [1] of 4.92.

In the case of `Cc1c(NCC(=O)O)c(=O)n(-c2ccccc2)n1C`, the pIC50 [1] was less than 4.00.

In the case of `Cc1c(NCS(=O)(=O)O)c(=O)n(C2CCCCC2)n1C`, the pIC50 [1] was 5.60.

In the case of `Cn1c(CO)c(NCS(=O)(=O)O)c(=O)n1-c1ccccc1`, the pIC50 [1] was 4.64.

Work on `CC(C)c1c(NCS(=O)(=O)O)c(=O)n(-c2ccccc2)n1C` yielded a pIC50 [1] of 5.34.

`Cc1c(NCS(=O)(=O)O)c(=O)n(-c2ccccc2)n1C` gave a pIC50 [1] of 5.63.

Work on `Cc1c(NCS(=O)(=O)O)c(=O)n(-c2ccc(-c3ccccc3)cc2)n1C` yielded a pIC50 [1] of less than 4.00.

Work on `Cc1c(NCS(=O)(=O)O)c(=O)n(-c2cccc(Br)c2)n1C` yielded a pIC50 [1] of 4.99.

`Cc1c(NCS(=O)(=O)O)c(=O)n(-c2cccc(-c3ccc(Br)cc3)c2)n1C` gave a pIC50 [1] of 5.02.
